This is an account of results in patent publication US20070004010A1, “Engineered Enzymes and Their Use for Synthesis of Thioglycosides” (THE UNIVERSITY OF BRITISH COLUMBIA, priority 2002, published 2007).

Test [1] deals with T1, Abg E171A (Agrobacterium sp., UniProt P12614, E171A). The experiment in a line: Kinetic analysis of thioglycoligase reaction (DNP release) with Abg E171A. The format is biochemical. Conditions: acceptor; donor 2,4-DNP β-D-glucopyranoside (125 mM); 30° C., 50 mM NaPi, 145 mM NaCl, pH 7.1; calculated from the highest observed rate of DNP release. How it is done:
Kinetic analysis was performed with 2,4-DNP β-D-glucopyranoside (125 mM) as donor and with pNP 4-deoxy-4-thio-β-D-glucopyranoside as acceptor at 30° C. in 50 mM NaPi, 145 mM NaCl, pH 7.1 (FIG. 7). It has been shown previously, that the KM− value of the donor is extremely low (<1 μM), and that no donor substrate inhibition is seen. Enzymatic background hydrolysis of the donor together with acceptor substrate inhibition make it difficult to exactly determine K′M and k′cat, but it can be calculated from the highest observed rate of DNP release, that k′cat is higher than 50 min^−1.

A further test concerns the target T2, Cex E127A (Cellulomonas fimi, UniProt P07986, E168A).
T2 sequence (P07986 42-484 E168A): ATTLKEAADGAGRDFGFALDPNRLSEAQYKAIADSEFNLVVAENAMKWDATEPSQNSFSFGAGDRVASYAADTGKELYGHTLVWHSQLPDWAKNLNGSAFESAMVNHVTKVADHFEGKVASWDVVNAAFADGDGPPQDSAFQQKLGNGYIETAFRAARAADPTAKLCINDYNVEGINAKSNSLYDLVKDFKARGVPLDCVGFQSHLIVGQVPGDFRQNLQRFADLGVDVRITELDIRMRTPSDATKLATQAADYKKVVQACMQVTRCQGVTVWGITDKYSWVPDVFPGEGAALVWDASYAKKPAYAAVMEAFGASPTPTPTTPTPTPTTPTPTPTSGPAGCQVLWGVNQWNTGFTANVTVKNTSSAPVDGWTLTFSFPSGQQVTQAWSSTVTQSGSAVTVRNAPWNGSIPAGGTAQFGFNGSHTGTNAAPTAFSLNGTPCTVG
The experiment in a line: Functional donors and acceptors for Cex E127A. It is filed as biochemical.

The test system of test [2] is Man2A E429A. The experiment in a line: Competition study for evaluation of relative rates of transfer to S- and O-acceptors (HPLC). The format is biochemical, Cellulomonas fimi. As to conditions: 6 vs pNP-Xyl, 5.5 mM each; donor DNP-Man; pH 6.8, RT; integration of HPLC peaks. How it is done: Arrows indicate the elution of the O-linked disaccharides, 10 is the S-linked disaccharide.
In order to assess the relative rates of transfer to the oxygen and sulfur nucleophiles in the case of Man 2A E429A we established a competition reaction in which equimolar amounts of pNP-Xyl and its 4-thio analogue 6 were incubated together with DNP-Man as donor and Man2A E429A (FIG. 3). When the concentration of donor was limiting (one third of the concentration of acceptors) we saw exclusive formation of the S-linked disaccharide 10 (a). However, upon addition of further donor to a final concentration twice that of the acceptors the O-linked disaccharides (indicated by arrows) were formed (b).
pNP-Xyl (5.5 mM), 6 (5.5 mM), DNP-Man (3.75 mM) and Man2A E429A (˜1 mg ml.) were incubated in phosphate buffer (50 mM, pH 6.8) for 3 h at RT. After removal of an aliquot DNP-Man was added to a final concentration of 22 mM. After 5 h at RT another aliquot was taken. The aliquots were diluted 1:3 with acetonitrile and centrifuged before applying to the HPLC. HPLC analysis was performed using a Waters 600E multisolvent delivery system with acetonitrile (A)/water (B) as mobile phase (linear gradient: 80% A→60% A in 15 min, flow: 1 ml min^−1), a Waters 2486 Dual λ Absorbance Detector (detection at 280 nm), a TOSO HAAS Amide 80 column (4.6×250 mm) and Millenium 3.20 software.

Test [3] concerns the target T1, Abg E171A. The format is biochemical. As to conditions: acceptor with Abg E171A in the presence of DNP-Glc as donor.
Test [4] deals with Man2A E429A. In words: Control reaction with parent sugars as acceptors, DNP-Man as donor. It is filed as biochemical, Cellulomonas fimi. As to conditions: acceptor for Man2A E429A in the presence of DNP-Man.
Test [5] can be described thus: Thioglycoligase function of Cex acid/base mutant. It is filed as biochemical, Cellulomonas fimi. As to conditions: mutation of the catalytic acid/base residue E127.

T1 sequence (P12614 whole entry E171A, looked up): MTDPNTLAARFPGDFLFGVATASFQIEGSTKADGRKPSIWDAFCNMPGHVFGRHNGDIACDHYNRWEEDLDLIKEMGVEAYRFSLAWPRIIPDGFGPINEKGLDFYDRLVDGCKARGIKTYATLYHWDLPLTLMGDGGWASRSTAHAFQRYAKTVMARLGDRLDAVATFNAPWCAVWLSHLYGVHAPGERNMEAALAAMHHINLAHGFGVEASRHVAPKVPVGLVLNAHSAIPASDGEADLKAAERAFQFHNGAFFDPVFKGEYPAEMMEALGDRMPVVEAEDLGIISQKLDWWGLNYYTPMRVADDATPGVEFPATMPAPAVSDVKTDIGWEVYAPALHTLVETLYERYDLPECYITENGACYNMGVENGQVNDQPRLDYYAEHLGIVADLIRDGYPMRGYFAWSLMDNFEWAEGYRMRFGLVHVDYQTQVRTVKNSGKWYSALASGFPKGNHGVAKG

In the case of `O=[N+]([O-])c1ccc(O[C@@H]2O[C@H](CO)[C@@H](S)[C@H](O)[C@H]2O)cc1` [compound 3, para-nitrophenyl 4-deoxy-4-thio-β-D-glucopyranoside], the “k′cat” value at Abg E171A [1] is reported as “higher than 50 min^−1”. Besides, the acceptor function entry at Cex E127A is “Functional acceptors”.
For the molecule `O=[N+]([O-])c1ccc(O[C@@H]2OC[C@@H](S)[C@H](O)[C@H]2O)cc1` [compound 6, p-Nitrophenyl 4-deoxy-4-thio-β-D-xylopyranoside], the “transfer to the thiosugar acceptor faster than transfer to its oxygen analogue” value in the test on Man2A E429A [2] is reported as “at least 100 fold”.
On to `O=[N+]([O-])c1ccc(O[C@@H]2O[C@H](CO)[C@@H](O)[C@H](O)[C@H]2O)cc1` [pNP-Glc, para-nitrophenyl β-D-glucopyranoside], for which the formation of disaccharides entry at Abg E171A [3] was “no formation of disaccharides”. Further, the “formation of disaccharide products” value in the test with Man2A E429A [4] is “only very slowly”.
The corresponding values for `O=[N+]([O-])c1ccc(O[C@@H]2OC[C@@H](O)[C@H](O)[C@H]2O)cc1` [pNP-Xyl, para-nitrophenyl β-D-xylopyranoside] are “no formation of disaccharides” and “only very slowly”.

B1: Cex E127A: endo acting retaining β-glycosidase from Cellulomonas fimi (Cex) mutated at the catalytic acid/base residue E127 (protein, UniProt P07986 42-484, looked up, variant E127A)
Exoglucanase/xylanase: T2 sequence (P07986 42-484 E168A)
B1: the thioglycoligase function result in test [5] is “functional thioglycoligase”.
